Measurements published in US20240099298A1, “BIOINSECTICIDAL COMPOSITIONS CONTAINING MONOTERPENES AND METHODS OF USE THEREOF” (priority 2017, published 2024).
≈ marks a conversion by molar mass, not a printed value.

Key:
[1] = system: Drosophila melanogaster (fruit fly); assay: Median lethal concentration fumigation test, fruit fly; format: in vivo; conditions: mortality after 280 minutes
[2] = biological target: T1, recombinant gamma-aminobutyric acid receptor-associated protein (rGABARAP) (Frankliniella occidentalis, UniProt A0A6J1T1Q2); assay: Microscale thermophoresis (MST) binding to rGABARAP; conditions: rGABARAP; read-out: Kd value, MST
Excerpt: (§1) Preparation of recombinant GABARAP (rGABARAP) protein. RNA was extracted from F. occidentalis and cDNA was then synthesized. GABARAP (GenBank accession No. LOC113211372) was obtained after PCR amplification (Stafford-Banks, et al. (2014) Plos One 9:e94447).
(§2) Interaction between ME and rGABARAP. A Nano Temper Monolith NT.115 MST system (Nano Temper, Munich, Germany) was used to assess the binding affinities between the target compounds and rGABARAP according to the published procedures (Zan, et al. (2020) Journal of Agricultural and Food Chemistry 68:6280-6285). Spinosyn A was used as a chemical positive control. Spinosyn A (≥1 nM) can trigger a change of the Cl^− current of insect neuron GABAAR, which is considered to be an insecticidal action mechanism of spinosyn A (Watson (2001) Pesticide Biochemistry and Physiology 71:20-28). Ovalbumin (OVA) (Sangon Biotech, Shanghai, China) is a control protein consisting of 385 amino acid residues. The interaction between OVA and ME was used as a protein control experiment (Huntington, et al. (1995) Protein Science 4:613-621).

[3] = system: Thrips Megalurothrips usitatus; conditions: 24-hour fumigation assay, 0-0.192 μL/dm^3
[4] = T 25 °C; cited from earlier work
adult T. palmi = conditions: cited from earlier work
[5] = biological target: T1, recombinant gamma-aminobutyric acid receptor-associated protein (rGABARAP); assay: Isothermal titration calorimetry (ITC) binding to rGABARAP; conditions: 25° C., pH 7.4
Description: as §1
(§3) The isothermal titration thermal binding measurements were performed with an ITC-200 calorimeter (GE Healthcare, Boston, MA) at 25° C. in a buffer containing 50 mM Tris-HCl and 100 mM NaCl (pH 7.4). […] The MicroCal Origin 7.0 software system was used for data processing. The first run was a pre-run and was excluded from the final data. The amount of protein in the sample pool was constant. […] The experimental bimolecular interaction data from the 18 drops were used to calculate the dissociation constant. The dissociation constant […] was calculated as 1/K (Li, et al. (2018) RSC Advances 8:18952-18958).

rGABARAP^Y174A [6] = biological target: T2, rGABARAP^Y174A (Frankliniella occidentalis, UniProt A0A6J1T1Q2); assay: MST binding to rGABARAP mutant
Description: as §2
(§4) Preparation of rGABARAP Mutant and Interaction Between ME and rGABARAP Mutant. […] DNAman was used to convert the nucleic acid sequence into an amino acid sequence and find the Y174 site. Y174 was mutated to A174. The rGABARAP mutant gene loaded into the pMCSG19 vector and the His tags at both ends of the sequence were retained to construct a prokaryotic expression plasmid. The carrier contained a maltose binding protein (MBP) tag that was not cut for verification. However, MBP and ME were used as treatment controls. The mutant plasmid was constructed in Sangon Biotech (Shanghai, China). The protein expression, purification, and desalting procedures of rGABARAP^Y174A mutant and rGABARAP were the same. Subsequently, the binding kinetics of ME and rGABARAP^Y174A were tested by MST and ITC.

rGABARAP^Y174A [7] = biological target: T2, rGABARAP^Y174A; assay: ITC binding to rGABARAP mutant
Description: as §3, §4

[8] = system: Megalurothrips usitatus (flower Thrips); conditions: adult M. usitatus, 24 hours of fumigation in 1-L flasks
housefly adults = conditions: cited from earlier work

T1 sequence (A0A6J1T1Q2 1-118): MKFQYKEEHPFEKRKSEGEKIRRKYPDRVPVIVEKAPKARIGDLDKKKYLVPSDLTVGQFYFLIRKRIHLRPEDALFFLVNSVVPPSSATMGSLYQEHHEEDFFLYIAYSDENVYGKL
T2 sequence (A0A6J1T1Q2 entry or part of it, stated change not applied): as the sequence (A0A6J1T1Q2 1-118) above

Compound: CC(C)=C1CC[C@H](C)CC1=O [(−)-Pulegone]
- LC50 (fiducial limits) [1]: 0.106 ng/mL (≈ 0.696 nM)
- LC90 (fiducial limits) [1]: 0.359 ng/mL (≈ 2.36 nM)
- Kd [2]: 2530 nM
- LC50 [3]: 0.119 μL/dm^3
- Vp (Pa)/T (° C.) [4]: 16.3/25 Pa
- LC50, fumigation toxicity (adult T. palmi): 9500 ng/mL (≈ 62400 nM)

Compound: C=CCc1ccc(OC)c(OC)c1 [Eugenol methyl ether, 1-(3,4-dimethoxyphenyl) -2-propene]
- Kd [2]: 1300 nM
- Kd [5]: 4220 nM
- Kd value, MST (rGABARAP^Y174A [6]): loss of binding
- Kd value, ITC (rGABARAP^Y174A [7]): neither MBP nor ME interacted
- activity against flower Thrips in preliminary screening [8]: exhibit insecticidal activity

Compound: CC(C)[C@@H]1CC[C@@H](C)CC1=O [menthone]
- repellent activity (housefly adults): 83%
